Measured values reported in patent publication US20060264402A1, “Pest control formulation” (Redline, Inc., priority 2003, published 2006).

Test system: human skin
Assay: Parasthesia irritation screening: one-gram drop placed on human skin, Parasthesia Irritation Rating (PIR)
Format: in vivo
Design: key: 0 = no discomfort, 4 = slight, 8 = noticeable, 12 = severe
Method: 1. Different ratios of active ingredient to IDPP are prepared for evaluation.
2. A one-gram drop of the ratio is placed on human skin. Only one drop is evaluated within a 24-hour period.
3. Irritation or sensitivity values are assigned according to the following scale (“Parasthesia Irritation Rating” or “PIR”): • 12=Severe • 8 =Noticeable discomfort • 4 =Slight discomfort • 0=No discomfort
4. If irritation is severe or noticeable at any time within a 24-hour period, the skin is washed and 5% lidocaine solution is applied to lessen discomfort.

[1] = ratio active agent:IDPP 0.67:1.00, within 24-hour period

Structure (SMILES)	Parasthesia Irritation Rating (active agent 1.00 without IDPP (—), within 24-hour period)	Parasthesia Irritation Rating [1]	Parasthesia Irritation Rating (ratio active agent:IDPP 1.00:1.00, within 24-hour period)	Parasthesia Irritation Rating (ratio active agent:IDPP 1.50:1.00, within 24-hour period)	Parasthesia Irritation Rating (ratio active agent:IDPP 0.18:1.00, within 24-hour period)	Parasthesia Irritation Rating (ratio active agent:IDPP 0.21:1.00, within 24-hour period)	Parasthesia Irritation Rating (ratio active agent:IDPP 0.25:1.00, within 24-hour period)	Parasthesia Irritation Rating (ratio active agent:IDPP 0.33:1.00, within 24-hour period)	Parasthesia Irritation Rating (ratio active agent:IDPP 0.43:1.00, within 24-hour period)
CC(C)=CC1C(C(=O)OC(C#N)c2cccc(Oc3ccccc3)c2)C1(C)C (stereo not shown) [Cyphenothrin]	12.00	0.00	0.00	4.00					
CC1(C)C(C=C(Cl)Cl)C1C(=O)OC(C#N)c1cccc(Oc2ccccc2)c1 (stereo not shown) [Cypermethrin]		12.00			0.00	0.00	4.00	12.00	12.00
